# Columns and labels:
# PrSC cells [1] = assay: Proliferation of PrSC cells stimulated with angiotensin II, TGFβ or EGF (cell count, Examples 1-3); type: cell-based, human; conditions: 5 days
# Experimental: A Cell Line Derived from Normal Human Prostatic stromal cells, i.e., PrSC cells, was purchased from Sanko Junyaku Co. Ltd. (Normal Human Prostate Stromal Cells, catalogue number CC-2508), and maintained by subculturing them in a phenol red-free RPMI medium under conditions of 5% CO2 and 37° C.
# The PrSC cells (10^4 cells) were placed in a 12-well dish, and cultured in a phenol red-free medium containing 0.1% (W/V) BSA under conditions of 5% CO2 and 37° C. for several days. Then, 1 μM or 10 μM of angiotensin II was added. To some wells, CV (10 μM; hereinafter CV was used at this concentration unless otherwise noted) was added as an AIIR blocker 4 hours before adding angiotensin II. Each group contained four wells (n=4). After culturing the cells at 5% CO2 and 37° C. for 5 days, the number of all cells in each of the wells was counted.
# The effect of an AIIR blocker was examined in the same manner as Example 1, except for that 10 ng/mL of TGFβ was used in place of angiotensin II.
# The effect of an AIIR blocker was examined in the same manner as Example 1, except for that 10 ng/mL of EGF was used in place of angiotensin II.
# PrSC cells [2] = assay: IL-6 secretion by PrSC cells (CLEIA); type: cell-based, human; conditions: 24 hours
# Experimental: PrSC cells prepared in the same manner as Example 1, or F-1 or FT-FB cells prepared as described above were placed in a 6-well dish at 10^5 cells per well, cultured at 5% CO2 and 37° C. for 1 day (24 hours), and stimulated by the addition of TGFβ (1 ng/mL), TNFα (1 ng/mL), EGF (2.5 or 10 ng/mL), or angiotensin II (1 μM or 10 μM) (n=3). CV was added as the AIIR blocker to some wells 4 hours before adding the reagents. The culture media were collected 24 hours after adding the reagents, and the concentrations of IL-6 were determined by the CLEIA method.
# [3] = test system: mixed tumor grafts of PC-3 cells and PrSC cells; assay: In vivo effect on mixed tumor grafts of PC-3 cells and PrSC cells transplanted on mice
# Experimental: The in vivo effect of the AIIR blocker was examined using the PC-3 human prostatic cancer cells with less expression of AT1 receptors (obtained from American Type Culture Collection, Rockville, Md., USA), and PrSC cells. PC-3 cells (5×10^6 cells) or a mixture of PC-3 and PrSC cells (2.5×10^6 cells each; a total of 5×10^6 cells) were injected subcutaneously in the back of male nude mice of 4 weeks old for forming tumors. Tumors having a diameter of about 5 mm were formed after one week. The above-described mice were divided into three groups: CV (5 mg/kg/day) administered group, CV (10 mg/kg/day) administered group, and non-administered group (Control) (n=4 for each group). The administered groups were orally administered with a specified dose of CV dissolved in drinking water every day from the first to the fifth week after the tumorigenic injection. The size of the tumor (heterograft) on each mouse was measured every week, and the volume was calculated using the formula: major axis×minor axis×minor axis/2. The volume was expressed as relative ratio to the volume in the first week as being 1. The results are shown in FIGS. 8 (PC-3 cells were transplanted) and 9 (a mixture of PC-3 and PrSC cells was transplanted).
structure (smiles),measurement,setting,value
"CCOc1nc2cccc(C(=O)OC(C)OC(=O)OC3CCCCC3)c2n1Cc1ccc(-c2ccccc2-c2nnn[nH]2)cc1 (stereo not drawn) [CV, 1-(cyclohexyloxycarbonyloxy)ethyl 2-ethoxy-1-[[2′-(1H-tetrazole-5-yl)biphenyl-4-yl]methyl]-1H-benzimidazole-7-carboxylate]",increase in the numbers of cells,"PrSC cells [1]; AII (1 μM)+CV 10 μM added 4 hours before, P<0.01 vs AII (1 μM)",suppressed to a level similar to that of the control group
same,increase in the numbers of cells,"PrSC cells [1]; AII (10 μM)+CV 10 μM added 4 hours before, P<0.01 vs AII (10 μM)",suppressed to a level similar to that of the control group
same,increase in the number of cells,"PrSC cells [1]; EGF 10 ng/mL + CV 10 μM, P<0.05",significantly suppressed (P<0.05) to the same level as that of the control group
same,increase in the number of cells,"PrSC cells [1]; TGFβ 10 ng/mL + CV 10 μM, P<0.05 vs TGFβ",significantly suppressed
same,IL-6 secretion,"PrSC cells [2]; EGF (10 ng/mL)+CV (10 μM), P<0.05 vs EGF",significantly suppressed
same,IL-6 secretion,"PrSC cells [2]; TGFβ (1 ng/mL)+CV 10 μM, P<0.04 vs TGFβ",significantly suppressed
same,IL-6 secretion,"PrSC cells [2]; TNFα (1 ng/mL)+CV 10 μM, P<0.01 vs TNFα",significantly suppressed
same,proliferation (relative tumor volume) vs Control,"[3]; mixture of PC-3 and PrSC cells transplanted, CV 5 or 10 mg/kg/day orally in drinking water, first to fifth week, male nude mice",dose-dependently suppressed
same,"relative tumor volume, difference from Control","[3]; mixture of PC-3 and PrSC cells, CV 10 mg/kg/day, fourth and fifth weeks (P<0.04 and P<0.03)",significant differences

# From US20070197562A1, “Remedies for prostatic hypertrophy” (Yokohama TLO Company, Ltd., priority 2004, published 2007)
